Experimental data published in US20100004202A1, “Quaternary ammonium-functionalized-POSS compounds” (NDSU Research Foundation, priority 2008, published 2010).

Key:
Solubility in methanol = type: physicochemical
Text: The octasilane-POSS, which was insoluble in methanol, was rendered soluble in methanol after the derivatization to Q-POSS.

[1] = test system: Escherichia coli ATCC 12435; assay: Antimicrobial activity of Q-POSS in solution, bacterial log reduction; type: cell-based; details: equal concentration 9.63×10^−5 moles/ml; 2 hrs at room temperature
Protocol: Antimicrobial characterization. The antimicrobial activity of the Q-POSS in methanol was determined as follows. Stocks of Escherichia coli ATCC 12435 and Staphylococcus aureus ATCC 25923 were maintained weekly at 4° C. on LBA and TSB, respectively. Broth cultures of E. coli (LBB) and S. aureus (TSB) were prepared by inoculating one colony into 10 ml of broth and incubating at 37° C. with shaking. Overnight cultures were pelleted via centrifugation (10 min at 4500 rpm), washed twice in 0.9% NaCl, and re-suspended to a 0.5 McFarland turbidity standard (˜10^8 cells/ml). Q-POSS (2 μL) was added to the bacterial suspension (1 mL) previously dispensed into a well of a sterile 24-well polystyrene plate. The plates were then placed on an orbital shaker and allowed to incubate for 2 hrs at room temperature. Each Q-POSS/bacterial suspension (0.1 mL of each) was immediately transferred to D/E neutralization medium (0.9 ml) in a 1.5 mL microcentrifuge tube, and serially diluted (1:10) in D/E medium. […] After 24 hr of incubation, the plates were removed from the incubator and photographed with a digital camera to quantify bacterial growth in solution. […] Methanol was also evaluated for antimicrobial activity as it was used to solublize the Q-POSS for biological evaluations. […]

E. coli = assay: Minimum inhibitory concentration (MIC); type: cell-based; details: overnight incubation 37° C., absorbance at 600 nm
Protocol: The minimum inhibitory concentration (MIC), of Q-POSS compounds and non-Q-POSS compounds were compared and the results are shown in Table 4. As used herein, MIC refers to the lowest concentration of an antimicrobial agent that will inhibit the visible growth of a microorganism after overnight incubation. The procedure was carried out by serially diluting the antimicrobial agent in growth medium and adding the appropriate microorganism. Three 200 μl aliquots of each dilution (inoculated with the appropriate microorganism) were transferred to a 96-well plate and allowed to incubate overnight at the appropriate temperature (37° C. for biomedical microorganisms such as E. coli). The plates were then measured for absorbance at 600 nm to determine microbial growth.

Row | Compound | solubility in methanol (Solubility in methanol) | Log Reduction against E. coli [1] | MIC against E. coli (E. coli) [µg/mL]
1 | C[SiH](C)O[Si]12O[Si]3(O[SiH](C)C)O[Si]4(O[SiH](C)C)O[Si](O[SiH](C)C)(O1)O[Si]1(O[SiH](C)C)O[Si](O[SiH](C)C)(O2)O[Si](O[SiH](C)C)(O3)O[Si](O[SiH](C)C)(O4)O1 [octasilane-POSS, Octasilane-POSS] | insoluble |  | 
2 | Benzalkonium chloride |  | 7.0 | 50
